This note sets out measurements from patent US7820212B2, “Abietane diterpenoid compound, and composition comprising extract of Torreya nucifera, or abietane diterpenoid compounds or terpenoid compounds isolated from them for prevention and treatment of cardiovascular disease” (Korea Research Institute of Bioscience and Biotechnology, priority 2004, dated 2010).

pIC50: −log10 of the molar value.

In one test the target is T1, hACAT-2 (Homo sapiens, UniProt O75908).
T1 construct: made in house; host or cells: Hi5 insect cells infected with recombinant baculovirus (virus produced in sf9 cells); microsomal fraction used
T1 sequence (O75908 1-522): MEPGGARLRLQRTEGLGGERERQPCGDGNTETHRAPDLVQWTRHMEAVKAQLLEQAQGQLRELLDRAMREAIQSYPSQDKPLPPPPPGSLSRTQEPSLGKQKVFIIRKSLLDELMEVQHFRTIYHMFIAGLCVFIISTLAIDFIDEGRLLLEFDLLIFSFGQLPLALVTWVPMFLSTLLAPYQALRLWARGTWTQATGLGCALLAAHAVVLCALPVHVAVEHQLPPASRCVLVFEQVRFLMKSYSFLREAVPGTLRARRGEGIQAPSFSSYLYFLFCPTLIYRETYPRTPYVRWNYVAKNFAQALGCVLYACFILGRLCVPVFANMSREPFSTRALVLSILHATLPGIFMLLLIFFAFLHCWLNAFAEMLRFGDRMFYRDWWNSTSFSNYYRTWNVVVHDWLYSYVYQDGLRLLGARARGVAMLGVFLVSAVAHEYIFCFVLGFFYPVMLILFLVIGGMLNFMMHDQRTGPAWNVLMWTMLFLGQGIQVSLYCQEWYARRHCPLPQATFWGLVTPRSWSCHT
The test is described as follows: ACAT activity, microsomal fraction of Hi5 cells over-expressing hACAT-2. The class given is biochemical. Here is the method:
(§1) In order to investigate the effect on hACAT-1 and hACAT-2 activities, hACAT-1 and hACAT-2 proteins were first obtained by taking advantage of baculovirus expression system.
(§2) cDNAs of hACAT-1 and hACAT-2 obtained from human liver cDNA library screening were inserted into baculovirus transfer vector, which was then introduced into insect sf9 cells to produce virus. Then, recombinant viruses of HACAT-1 and hACAT-2 were separated by plaque purification method, and amplification was performed three times to increase titer of viral stock. Hi5 insect cells having a good protein expression efficacy were infected with the recombinant virus, making multiplicity of infection as 1, followed by shaking culture at 27° C. for one day.
(§3) The cultured Hi5 cells over-expressing hACAT-1 and hACAT-2 were centrifuged at 500×g for 15 minutes to separate microsomal fraction. Then, cells were crushed in hypotonic buffer by quick freezing quick thawing, followed by ultracentrifugation at 100,000×g for one hour.
(§4) The obtained microsomal fractions were suspended in storage buffer solution, adjusting protein content to 8 mg/ml, which was stored in a deep freezer before using.
(§5) 6.67 μl of cholesterol dissolved in acetone at the concentration of 1 mg/ml was mixed with 6 μl of 10% triton WR 1339 (Sigma Co.) in acetone. And acetone was evaporated by nitrogen gas. Distilled water was added to the resultant mixture to adjust the content of cholesterol to […].
(§6) To 10 μl of cholesterol solution was added 10 μl of 1 M KH2PO4 (pH 7.4), 5 μl of 0.6 mM BSA (bovine serum albumin), 10 μl of the microsomal solution obtained above, 10 μl of sample (T. nucifera extracts or abietane diterpenoid compound isolated from the same) and 45 μl of distilled water (total 90 μl). The mixture was pre-incubated in a 37° C. water bath for 30 minutes.
(§7) 10 μl of [1-^14C]oleyl-CoA solution (0.05 μCi, final concentration 10 μM) was added to the pre-incubated mixture, which was reacted in a 37° C. water bath for 30 minutes. To the mixture was added 500 μl of isopropanol:heptane solution (4:1 (v/v)), 300 μl of heptane and 200 μl of 0.1 M KH2PO4 (pH 7.4), which was stirred vigorously with vortex and then allowed to phase separation under gravity at room temperature for 2 minutes.
(§8) The 200 μl of upper phase was put in a scintillation vial, to which 4 ml of scintillation solution (Lipoluma, Lumac Co.) was added. Radioactivity of the upper phase was measured by a scintillation counter (1450 Microbeta liquid scintillation counter, Wallacoy, Finland).
(§9) ACAT activity was calculated based on the radioactivity, the amount of synthesized cholesteryl oleate, measured above and expressed as a defined unit, pico mole per 1 mg of protein for 1 minute (pico mole/minute/mg protein).

The target in another test is T2, hACAT-1 (Homo sapiens, UniProt P35610).
T2 construct: made in house; host or cells: Hi5 insect cells infected with recombinant baculovirus (virus produced in sf9 cells); microsomal fraction used
T2 sequence (P35610 1-550): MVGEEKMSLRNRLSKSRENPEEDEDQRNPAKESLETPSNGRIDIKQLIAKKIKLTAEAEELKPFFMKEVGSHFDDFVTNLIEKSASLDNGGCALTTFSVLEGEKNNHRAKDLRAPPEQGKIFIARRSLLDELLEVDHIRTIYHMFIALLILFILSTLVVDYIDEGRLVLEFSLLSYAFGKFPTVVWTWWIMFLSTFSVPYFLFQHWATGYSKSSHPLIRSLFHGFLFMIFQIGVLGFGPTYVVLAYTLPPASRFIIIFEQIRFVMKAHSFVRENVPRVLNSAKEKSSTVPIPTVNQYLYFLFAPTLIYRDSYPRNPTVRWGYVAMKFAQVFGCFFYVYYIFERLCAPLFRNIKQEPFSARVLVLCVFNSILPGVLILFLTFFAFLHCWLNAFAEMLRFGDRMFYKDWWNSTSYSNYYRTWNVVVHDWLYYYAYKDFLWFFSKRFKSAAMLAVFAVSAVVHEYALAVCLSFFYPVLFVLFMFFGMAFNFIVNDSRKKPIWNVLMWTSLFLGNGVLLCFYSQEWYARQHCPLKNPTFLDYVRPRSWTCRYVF
The experiment in a line: ACAT activity, microsomal fraction of Hi5 cells over-expressing hACAT-1. It is filed as biochemical. As to the method: as §1, §2, §3, §4, §5, §6, §7, §8, §9

In the next test the test system is C57BL/6J mice. The test is described as follows: Cholesterol-lowering effect in mice on high-fat/high-cholesterol (HFHC) diet. The class given is in vivo. The settings on record: for HDL-cholesterol / HDL/total cholesterol / Total cholesterol: blood plasma, 1% extracts or 0.1% probucol (wt/wt diet). As to the method:
30 specific pathogens free male C57BL/6J mice at the age of 6 weeks were raised in an animal facility, in which temperature was maintained as 22±3° C., humidity was kept as 55±10% and light was regulated as 12L/12D. The mice were adapted for about one week before being used for experiments. When they were at the age of 7 weeks (weight: 20˜22 g), they were divided into […] according to randomized block design. Group 1 mice were given with high-cholesterol/high-fat diet (CRF-1; AIN-76 test animal's normal diet supplemented with 1.25% cholesterol and 15% fat, Orient Yeast Co. Ltd., Japan), group 2 mice were given with high-fat/high-cholesterol (HFHC) diet together with 1% methanol extracts (wt/wt diet) of T. nucifera leaves (or 1% hot water extracts of T. nucifera leaves), and group 3 mice were treated with HFHC diet together with 0.1% probucol (wt/wt diet). All the mice of every group were free to take the diet and water for 10 days. Dietary intake was recorded everyday and weights of animals were measured every 5 days. Upon completion of breeding, all the records were analyzed. […] All the mice in three groups were sacrificed 10 days after the beginning of animal tests, then their blood was examined. Blood was taken from retro-orbital sinus of the sacrified mice by heparin treated capillary tube. Centrifugation was performed with blood at 8,000×g for 10 minutes. Blood plasma was separated from supernatant and then stored in a deep freezer. Total cholesterol content (TC) in blood plasma of each mouse of experimental group was measured by using a blood chemistry analyzer (CIBA Corning 550 Express, USA). In order to measure HDL-cholesterol, HDL measuring reagent (Chiron Diagnostics Co., USA), produced by the modified method for HDL measurement (references [(1) Stein E. A., et al.: Development and evaluation of a method for quantitation of plasma high-density-lipoprotein cholesterol. Clin. Chem. 24: 1112-1115, 1978; (2) Finley P. R., et al.: Cholesterol in high-density lipoprotein: use of Mg^2+/dextran sulfate in its enzymatic measurement. Clin. Chem., 24: 931-933, 1978; (3) Warnick G. R., et al.: Dextran sulfate-Mg^2+ precipitation procedure for quantitation of high-density lipoprotein cholesterol. Clin. Chem. 28: 1379-1388, 1982]) in which dextran sulfate and magnesium sulfate were added to serum of each mouse to precipitate LDL and VLDL and then HDL in supernatant was measured, was mixed with blood plasma of each experimental group at the ratio of 1:10. […] The resultant supernatant was put in a blood chemistry analyzer. A statistical computer program (Microsoft Excel, Version 7.0) was used to investigate and confirm (student t-test) the significance in difference in the results of blood analysis among experimental groups.

The next test deals with LDL. The test is described as follows: Anti-oxidative activity to LDL by TBARS method (Cu2+ mediated LDL-oxidation). The class given is biochemical, human. The note with it: 37° C. 4 hours, MDA by TBARS. Here is the method: Cu^2+ is known to mediate LDL-oxidation. Thus, in the present invention, dialdehyde, which is an oxidation product of unsaturated fatty acid formed during Cu^2+ mediated LDL-oxidation, was measured by thiobarbituric acid reactive substances (TBARS) method in order to investigate the LDL anti-oxidative activity of T. nucifera extracts or abietane diterpenoid compound separated from the same (Ahn, B. T. et. al., Low-density Lipoprotein-Antioxidant Constituents of Saururus Chinensis, J. Nat. Prod. 64: 1562, 2001). Centrifugation was performed with 300 ml of human blood plasma by using a ultracentrifuge at 100,000×g for 24 hours to remove floating VLDL/chylomicron layer in the upper part. The specific gravity of the remaining solution was adjusted to 1.063 g/ml. Centrifugation was performed again at 100,000×g for 24 hours, and 25 ml of the floating LDL (1.5˜2.5 mg protein/ml) in the upper layer was separated. […] T. nucifera extracts or abietane diterpenoid compound isolated from the same was dissolved in DMSO (dimethylsulfoxide), and the solution was diluted at different concentrations before use. […] OD540 was measured with a UV/VIS spectrophotometer. Malondialdehyde (MDA) detected by the above coloring was quantified. […] MDA was quantified by using the standard curve in experiments with T. nucifera extracts or abietane diterpenoid compound isolated from the same.

The term pIC50 denotes −log10 of the IC50, conventionally taken in molar units. As for `CC(C)c1ccc2c(c1)CC[C@H]1[C@](C)(CO)CCC[C@]21C` [Dehydroabietinol, dehydroabietinol], the pIC50 against hACAT-2 was 4.22; against hACAT-1 it was 4.39.

In the case of `C=C[C@@]1(C)CC[C@H]2C(=CC[C@@H]3[C@]2(C)CCC[C@@]3(C)C(=O)O)C1` [Isopimaric acid, isopimaric acid], the pIC50 against hACAT-2 was 3.58; at hACAT-1 it was 3.64.

Consider `C=C1CCC2[C@](C)(CO)CCC[C@]2(C)[C@H]1CC/C(C)=C\CO` (stereo partly drawn) [Kayadiol, kayadiol], for which the pIC50 is 3.81 on hACAT-2 and 3.92 against hACAT-1.

As for `CC(C)(Sc1cc(C(C)(C)C)c(O)c(C(C)(C)C)c1)Sc1cc(C(C)(C)C)c(O)c(C(C)(C)C)c1` [Probucol], in the test with C57BL/6J mice (HFHC diet 10 days), the “plasma HDL-cholesterol contents compared with negative control” value is reported as “not much different”. In the test with C57BL/6J mice (Table 3, HFHC diet 10 days), the HDL-cholesterol was found to be 41.7 ± 6.4 mg/dL, the HDL/total cholesterol is 24.3% and the Total cholesterol was 177.0 ± 33.7 mg/dL. The “total cholesterol in plasma reduced, comparing to a control” value in the test with C57BL/6J mice (Table 3 experiment, vs HFHC diet group) was determined as 14.5%. In the test on C57BL/6J mice (Table 4, HFHC diet 10 days), the HDL-cholesterol was determined as 44.3 ± 6.5 mg/dL, the HDL/total cholesterol stood at 24.5% and the Total cholesterol was determined as 180.9 ± 32.6 mg/dL. Besides, the “plasma cholesterol reduced, comparing to a control” value in the test on C57BL/6J mice (Table 4 experiment, vs HFHC diet group) is 11.5%. The compound further gave a pIC50 with LDL of 5.81.

Turning to `CC(C)c1cc2c(cc1O)[C@@]1(C)CCC[C@@](C)(C=O)C1CC2` (stereo partly drawn) [R = aldehyde, 18-oxoferruginol], the pIC50 was 4.38 against hACAT-2 and 4.43 on hACAT-1.

As for `COC(OC)[C@]1(C)CCC[C@]2(C)c3cc(O)c(C(C)C)cc3CCC12` (stereo partly drawn) [R = dimethoxymethyl, 12-hydroxyabietic-8,11,13-trien-18-dimethylacetal], the pIC50 against hACAT-2 is 3.70; on hACAT-1 it was 4.01.

`CC(C)c1cc2c(cc1O)[C@@]1(C)CCC[C@@](C)(CO)C1CC2` (stereo partly drawn) [R = hydroxymethyl, 18-hydroxyferruginol]: the pIC50 on hACAT-2 is 4.19; against hACAT-1, 4.13.

In the case of `CC(C)c1cc2c(cc1O)[C@@]1(C)CCCC(C)(C)[C@@H]1CC2` [R = methyl, ferruginol], the pIC50 against hACAT-2 was 4.06; at hACAT-1, 4.34.

With `COC(=O)[C@]1(C)CCC[C@]2(C)c3cc(O)c(C(C)C)cc3CCC12` (stereo partly drawn) [R = methylester, 12-hydroxyabietic-8,11,13-trien-18-oic acid methylester], the results for the pIC50 on hACAT-2 and on hACAT-1 were 3.51 and 3.89, respectively.

Turning to δ-cadinol, the pIC50 against hACAT-1 is 4.10.
